Here are results for 65 molecules from a melting point compilation (Tetko et al.; mined from patent text by program, amines drawn as free bases though some values may be those of a salt).

Structures are written as SMILES.

By melting point is commonly meant the temperature of the solid-liquid transition.

Molecule `Cc1ccc(S(=O)(=O)N2CCCC2c2ccncc2)cc1` (racemic) came in with a melting point of 158 °C. Next, `CC(=O)N1CCC(O)(c2ccccc2C)CC1`: 145 to 146 °C; `CC1(C)Oc2ccc(C#N)cc2C(OC(=O)C2CCCN2S(=O)(=O)c2ccc(Cl)cc2)C1Br` (stereo not given): 178 to 180 °C.

`N#CCOc1ccc(F)c(C(N)=O)c1F` displayed a melting point of 122 to 123 °C. In the case of `O=c1cc(-c2ccccc2)oc2cc(OCCn3ccnc3)ccc12` it was 155 to 159 °C; in that of `Cc1nccc2[nH]c(=O)c(C(=O)O)cc12`, 255 to 257 °C; in that of `CCOC(=O)N=C(NCCCc1c[nH]cn1)NCCC(c1ccccc1)c1ccccc1`, 125 to 126 °C. In the case of `CC(C)COc1ccc(COc2ccc(CC(=O)O)cc2Cl)cc1` it was 107 to 108 °C; in that of `COC(=O)c1ccc(-c2nnc3n2-c2cccnc2Nc2ccccc2-3)cc1`, over 300 °C. `CCCNC(=O)N(Cc1ccccc1)NC(=O)OC(C)(C)C` yielded a melting point of 123 to 124 °C. Molecule `O=P(O)(O)C(F)(F)c1ccc(CN(Cc2ccc(C(F)(F)P(=O)(O)O)cc2)S(=O)(=O)c2ccccc2Cl)cc1` came in with a melting point of 170 to 172 °C. The molecule `CCCc1c(OCCCC#CC(=O)O)ccc(C(C)=O)c1O` came in with a melting point of 115 to 116 °C. On to `COc1cc(-c2nc3ccc(O)cc3n2Cc2ccccc2C(F)(F)F)cc(OC)c1OC`, for which the melting point is 191 °C. In the case of `O=C(O)Cc1c(C(=O)c2ccc(-c3ccco3)cc2)[nH]c2cc(Cl)ccc12` it was 230 to 232 °C.

Consider `CC(=O)N(C)c1cccc(-c2ccnc3c(C#N)cnn23)c1`, for which the melting point is 195 to 197 °C. Molecule `CC1c2cc(OCC(=O)O)c(Cl)c(Cl)c2C(=O)C1(C)Cl` (stereo not given) came in with a melting point of 179 to 187 °C.

On to `Clc1nnc(CN2CC3(COc4cc5c(cc43)OCO5)c3ccccc32)s1` (stereo not given), for which the melting point fell in the range of 194 to 197 °C. In the case of `CCCc1nn(C)c2c(=O)n(CCCc3cccc(OC(C)(CC)C(=O)O)c3)c(C)nc12` (stereo not given), the melting point was 136 to 138 °C. Next, `COc1ccc(O)c(C2(O)C(=O)Nc3cccc(Br)c32)n1` (stereo not given): 172 to 175 °C; `COC(=O)C1=C(C)NC(C(OC)OC)=C(C(=O)OC)C1c1cccc([N+](=O)[O-])c1` (stereo not given): 99 to 100 °C. As for `CN1Cc2c(C(=O)OCCO)ncn2-c2ccc(F)cc2C1=O`, the melting point lay within 202 to 204 °C.

Take `Cc1ccc(C)c(-c2cccc3c2OC(CN)C3)c1` (stereo not given): the melting point is over 225 °C.

In turn, `Oc1ccnn1-c1c(Cl)cc(C(F)(F)F)cc1Cl` yielded a melting point of 223 to 225 °C. In the case of `CC(C)(C)OC(=O)N1CCC(c2nc3cc(-c4ccc(C(N)=O)c(F)c4)ccc3o2)CC1` it was 202 to 206 °C; in that of `O=C1CCCc2ccc3ccccc3c21`, 64 to 66 °C. In the case of `COc1cc2c(cc1-c1ccc(F)cc1)C(=CNc1ccc(CN3CCCCC3)cc1)C(=O)NC2=O` it was 227 to 230 °C; in that of `CCN(CC)C(=O)CCc1nc(-c2ccc([N+](=O)[O-])cc2)nc2ccccc12`, 168 °C; in that of `Cc1nc(CC2CCN(c3ccccc3)CC2)nc(C(=O)NCC(=O)O)c1O`, 141 °C. As to `CCOc1cc(C)nc2nc(S(=O)(=O)Nc3c(Cl)ccc(C)c3Cl)nn12`, the melting point was 228 to 229 °C. In the case of `Cn1c2c(c3ccccc3c1=O)C(=O)c1cc3c(cc1-2)OCO3` it was 310 to 312 °C; in that of `CNC(=O)CC1c2cc(C#N)ccc2OC(C)(C)C1O` (stereo not given), 141 to 142 °C; in that of `C=CCOc1cccc(C(=O)O)c1`, 78 to 79 °C. In the case of `COC(=O)CCCCCCCCC(=O)c1ccccc1` it was 37 to 38 °C.

The molecule `CCOC(=O)OCCn1nc(-c2cc(C(C)(C)C)c(O)c(C(C)(C)C)c2)c2cccnc21` came in with a melting point of 103 to 105 °C. Consider `CCOC(=O)c1cnc2c3cc(NC(=O)Nc4ccccc4)ccc3c(C)cn2c1=O`, for which the melting point is over 300 °C.

`CNn1c(N(C)C)nn(C(=O)NC2CCCC2)c1=O` had a melting point of 137 °C. `CCOC(=O)c1cnc2sccc2c1Cl` yielded a melting point of 71 to 72 °C.

In the case of `O=C1N=CNC(=O)C1Cc1ccccc1C(F)(F)F` (stereo not given), the melting point was over 290 °C. In the case of `CSCCn1c2ccc(C)cc2c(=O)c2c1cnn2C` it was 125 °C; in that of `Nc1nc2cccnc2c2c1ncn2CC1(O)CCOCC1`, 225 to 226 °C. As to `C=CCOC(=O)Cn1c(=O)n(S(=O)(=O)c2ccc(Cl)cc2)c(=O)c2ccccc21`, the melting point fell in the range of 164 to 166 °C. In the case of `CN(C(=O)C(Cl)(Cl)Cl)c1nc(Cl)c([N+](=O)[O-])s1`, the melting point lay within 146 to 149 °C. In turn, `OCc1cn(-c2cccc3cccnc23)cn1` returned a melting point of 168 to 170 °C.

`CCOC(=O)CSc1nc(=O)[nH]cc1F` showed a melting point of 156 °C. Next, `N#Cc1ccc(Cn2cncn2)cc1-c1ccc(Cl)c(OS(N)(=O)=O)c1`: 148 to 150 °C; `O=C1c2ccccc2C(=O)N1OCn1ccnc1`: 158 to 160 °C; `N#CCC1(C#N)CCC2(CC1)OCCO2`: 137 °C. Consider `Cc1nc(N2CCN(Cc3ccc(C(F)(F)F)cc3)C2=O)sc1-c1ccno1`, for which the melting point lay within 153 to 154 °C.

Regarding `COc1cc2c(c3c1OC(C)(C)C3)C(c1cccc(-c3ccccc3)c1)=NC(C)(C)C2`, the melting point was 141 to 142 °C. Next, `O=C1CCC([N+](=O)[O-])C(c2cccc(Cl)c2)N1` (stereo not given): 131 to 133 °C; `CCOc1cc(CC)ccc1C1CCN(CCCCNC(=O)c2ccc(NC(=O)c3ccc(Cl)cc3)cc2)CC1`: 250 °C; `CC(C)Cn1nc(-c2ccccc2)cc(C(=O)O)c1=O`: 120 to 121 °C. `Nc1ccccc1COc1ccn(-c2ccc(Cl)cc2)n1` gave a melting point of 81 to 83 °C. Next, `O=c1[nH]nc(-c2cccc(Cl)c2)c2ncccc12`: 268 to 269 °C.

In turn, `FC(F)(F)c1ccc(-c2cc(Oc3ccc4cccnc4c3)nnc2-c2ccccc2)cc1` displayed a melting point of 178 to 183 °C. Next, `Clc1ccc2c(c1)Cc1ccccc1CN2`: 137 to 141 °C; `Nc1ccc2nc(O)c(O)nc2c1N`: over 300 °C; `COC(=O)CCC(CSc1ccc2ccccc2c1)C(=O)O` (stereo not given): 70 to 71 °C. Next, `C#CCSc1nn(C(=O)NS(=O)(=O)c2c(C)cccc2OCCC)c(=O)n1C`: 151 °C; `Sc1nccc(-c2ccccc2)n1`: 203 to 205 °C.

`O=C(CCCS(=O)c1ccc(Cl)cc1)NO` (stereo not given) registered a melting point of 126 to 127 °C. In the case of `O=C(NCc1ccc(Cl)cc1)c1cn(CCO)c2sc(CCCO)cc2c1=O` it was 174 to 178 °C; in that of `COc1ccccc1[C@H](c1cccc2ccccc12)[C@@](C)(C#N)C(=O)N1CCN(c2ccccc2Cl)CC1`, 145 to 147 °C; in that of `CNC(=O)c1ccc(OCC(O)CNC(C)C)nc1` (stereo not given), 118 to 120 °C. In the case of `CCCc1cc(C(O)=S)cc(N)c1Oc1ccccc1`, the melting point was in the range of 136 to 138 °C.
